Results as given in patent US6680282B2 (priority 1997, dated 2004).

What was measured:
Sphaerotheca fuliginea = experiment: Test for control effect against powdery mildew of Cucurbitaceae (spray on cucumber seedlings); assay type: in vivo; conditions: 200 ppm spray, cucumber first foliage leaf, 10 days after inoculation
Excerpt: Test for Control Effect Against Powdery Mildew of Cucurbitaceae
A spray liquid comprising a test compound whose concentration was adjusted to be 200 ppm by dilution with water was sprayed to a cucumber grown in a vinyl pot of 3 cm in diameter when its first foliage leaf was developed. The air-dried cucumber seedling was inoculated with a conidium suspension of Sphaerotheca fuliginea. Thereafter, the cucumber seedling was transferred in an air-conditioned greenhouse. 10 Days after the inoculation, the disease severity was observed. The protective value was calculated by comparing the disease severity in a treated area with that in an untreated area. Then, control effect was ranked according to the following criterion.
B; protective value 50 to 79%

Pyricularia oryzae [1] = experiment: whole plant or invertebrate; assay type: in vivo; conditions: for rank (control effect, protective value from lesion number): 100 ppm spray, rice seedling (Jikkoku) 4-leaf stage, lesion number on fourth leaf 6 days after inoculation; for pest or weed control at 100 ppm: Pyricularia oryzae, foliar, 144 h, read-out: rank (control effect, protective value from lesion number)
Pyricularia oryzae [2] = assay type: cell-based; conditions: 100 ppm in potato dextrose agar, 28 or 22° C., 48 hours
Rhizoctonia solani = assay type: cell-based; conditions: 100 ppm in potato dextrose agar, 28 or 22° C., 48 hours
Description: (§1) Test for Antifungal Activity
(§2) A test compound dissolved in acetone was mixed in a potato dextrose agar medium (manufactured by Nissui Seiyaku K. K.) so that the final concentration of the test compound was 100 ppm and then poured in a Petri dish. To this Perti dish after the agar was completely solidified, a cylindrical section prepared by punching a mycelial colony of each of plant pathogenic fungi cultured in another Petri dish by means of a cork borer was inoculated and cultured at 28 or 22° C. 48 Hours after the inoculation, the diameter of the mycelial colony was determined. Control percentages were calculated by comparing the diameter of the mycelial colony in a treated area with that in an untreated area. And, antifungal effect was ranked according to the following criterion.
(§3) A; control percentage ≧80%
(§4) B; control percentage 50 to 79%
(§5) C; control percentage <50%

[3] = test system: Fusarium oxysporum f. sp. lycopersici; assay type: cell-based; conditions: 100 ppm in potato dextrose agar, 28 or 22° C., 48 hours
Description: as §1, §2, §3, §4, §5

Botrytis cinerea = assay type: cell-based; conditions: 100 ppm in potato dextrose agar, 28 or 22° C., 48 hours
Description: as §1, §2, §3, §4, §5

Verticillium aibo-atrum = assay type: cell-based; conditions: 100 ppm in potato dextrose agar, 28 or 22° C., 48 hours
Description: as §1, §2, §3, §4, §5

[4] = test system: Colletotrichum atramentarium; assay type: cell-based; conditions: 100 ppm in potato dextrose agar, 28 or 22° C., 48 hours
Description: as §1, §2, §3, §4, §5

[5] = test system: Alternaria alternata Japanese pear pathotype; assay type: cell-based; conditions: 100 ppm in potato dextrose agar, 28 or 22° C., 48 hours
Description: as §1, §2, §3, §4, §5

Gibberella fujikuroi = assay type: cell-based; conditions: 100 ppm in potato dextrose agar, 28 or 22° C., 48 hours
Description: as §1, §2, §3, §4, §5

Sclerotinia minor = assay type: cell-based; conditions: 100 ppm in potato dextrose agar, 28 or 22° C., 48 hours
Description: as §1, §2, §3, §4, §5

Glomerella cingalata = assay type: cell-based; conditions: 100 ppm in potato dextrose agar, 28 or 22° C., 48 hours
Description: as §1, §2, §3, §4, §5

Cochlioborus miyabeanus = assay type: cell-based; conditions: 100 ppm in potato dextrose agar, 28 or 22° C., 48 hours

| Structure (SMILES) | rank (control effect, protective value from disease severity) (Sphaerotheca fuliginea) | rank (control effect, protective value from lesion number) (Pyricularia oryzae [1]) | other results |
| --- | --- | --- | --- |
| CCc1cc(C(C)CC)cc2c(OC(C)=O)c(C)c(C)nc12 (racemic) [Compound No. 348] | A (protective value ≧80%) | A (protective value ≧80%) | – |
| CCc1ccc2nc(C)c(C)c(OC(C)=O)c2c1 [Compound No. 10] | – | A (protective value ≧80%) | rank (antifungal effect, control percentage of mycelial colony diameter) (Pyricularia oryzae [2]): A (control percentage ≧80%); rank (antifungal effect, control percentage of mycelial colony diameter) (Rhizoctonia solani): C (control percentage <50%); rank (antifungal effect, control percentage of mycelial colony diameter) [3]: C (control percentage <50%); rank (antifungal effect, control percentage of mycelial colony diameter) (Botrytis cinerea): C (control percentage <50%); rank (antifungal effect, control percentage of mycelial colony diameter) (Verticillium aibo-atrum): C (control percentage <50%); rank (antifungal effect, control percentage of mycelial colony diameter) [4]: B (control percentage 50 to 79%); rank (antifungal effect, control percentage of mycelial colony diameter) [5]: C (control percentage <50%); rank (antifungal effect, control percentage of mycelial colony diameter) (Gibberella fujikuroi): C (control percentage <50%); rank (antifungal effect, control percentage of mycelial colony diameter) (Sclerotinia minor): C (control percentage <50%); rank (antifungal effect, control percentage of mycelial colony diameter) (Glomerella cingalata): B (control percentage 50 to 79%); rank (antifungal effect, control percentage of mycelial colony diameter) (Cochlioborus miyabeanus): B (control percentage 50 to 79%) |
| CC(=O)Oc1c(C)c(C)nc2ccc(C3CCCCC3)cc12 [Compound No. 112] | A (protective value ≧80%) | A (protective value ≧80%) | – |
| CC(=O)Oc1c(C)c(C)nc2ccc(Oc3ccccc3)cc12 [Compound No. 136] | A (protective value ≧80%) | A (protective value ≧80%) | – |
| CCC(C)c1ccc2nc3c(c(OC(C)=O)c2c1)CCC3 (stereo not drawn) [Compound No. 153] | A (protective value ≧80%) | B (protective value 50 to 79%) | – |
| CCC(C)c1cc(Cl)c2nc(C)c(C)c(OC(C)=O)c2c1 (stereo not drawn) [Compound No. 214, 4-acetoxy-6-s-butyl-8-chloro-2,3-dimethylquinoline] | A (protective value ≧80%) | – | pest or weed control at 100 ppm (Pyricularia oryzae [1]): > 80% |
| CCCCc1cc(Cl)c2nc(C)c(C)c(OC(C)=O)c2c1 [Compound No. 216] | B (protective value 50 to 79%) | A (protective value ≧80%) | – |
| CC(=O)Oc1c(C)c(C)nc2c(Cl)cc(C(C)(C)C)cc12 [Compound No. 218] | A (protective value ≧80%) | A (protective value ≧80%) | – |
| CCc1cc(CC)c2nc(C)c(C)c(OC(C)=O)c2c1 [Compound No. 268] | B (protective value 50 to 79%) | A (protective value ≧80%) | – |
| CCC(C)c1cc(CO)c2nc(C)c(C)c(OC(C)=O)c2c1 (stereo not drawn) [Compound No. 340, 4-acetoxy-6-s-butyl-8-hydroxymethyl-2,3-dimethylquinoline] | A (protective value ≧80%) | – | pest or weed control at 100 ppm (Pyricularia oryzae [1]): > 80% |
| CCC(C)c1cc(CCl)c2nc(C)c(C)c(OC(C)=O)c2c1 (stereo not drawn) [Compound No. 344, 4-acetoxy-6-s-butyl-8-chloromethyl-2,3-dimethylquinoline] | A (protective value ≧80%) | – | pest or weed control at 100 ppm (Pyricularia oryzae [1]): > 80% |
| CCC(C)c1cc(C=O)c2nc(C)c(C)c(OC(C)=O)c2c1 (stereo not drawn) [Compound No. 356, 4-acetoxy-6-s-butyl-8-formyl-2,3-dimethylquinoline] | A (protective value ≧80%) | – | pest or weed control at 100 ppm (Pyricularia oryzae [1]): > 80% |
| CC(=O)Oc1c(C)c(C)nc2ccc(OC(C)C)cc12 [compound 24] | A (protective value ≧80%) | B (protective value 50 to 79%) | – |
| CCCCc1ccc2nc(C)c(CCC)c(OC(C)=O)c2c1 [compound 45] | B (protective value 50 to 79%) | A (protective value ≧80%) | – |
| CCC(C)c1ccc2nc(C)c(C)c(OC(C)=O)c2c1 (stereo not drawn) [compound 55] | A (protective value ≧80%) | A (protective value ≧80%) | – |
| CCC(=O)Oc1c(C)c(C)nc2ccc(C(C)CC)cc12 (stereo not drawn) [compound 56] | A (protective value ≧80%) | A (protective value ≧80%) | – |
| CCC(C)c1ccc2nc(C)c(C)c(OC(=O)c3ccccc3)c2c1 (stereo not drawn) [compound 61] | B (protective value 50 to 79%) | A (protective value ≧80%) | – |

| Structure (SMILES) | rank (control effect, protective value from disease severity) (Sphaerotheca fuliginea) | rank (control effect, protective value from lesion number) (Pyricularia oryzae [1]) | other results |
| --- | --- | --- | --- |
| CCC(C)c1ccc2nc(C)c(C)c(OC(=O)OC)c2c1 (stereo not drawn) [compound 65] | A (protective value ≧80%) | A (protective value ≧80%) | – |
| CCOC(=O)Oc1c(C)c(C)nc2ccc(C(C)CC)cc12 (stereo not drawn) [compound 66] | A (protective value ≧80%) | A (protective value ≧80%) | – |
| CCCCCCCCOC(=O)Oc1c(C)c(C)nc2ccc(C(C)CC)cc12 (stereo not drawn) [compound 67] | A (protective value ≧80%) | A (protective value ≧80%) | – |
| CCC(C)c1ccc2nc(C)c(C)c(OC(=O)Oc3ccccc3)c2c1 (stereo not drawn) [compound 68] | A (protective value ≧80%) | A (protective value ≧80%) | – |
| CCC(C)c1ccc2nc(C)c(C)c(OC(=O)N(C)C)c2c1 (stereo not drawn) [compound 71] | A (protective value ≧80%) | – | – |
| CCC(C)c1ccc2nc(C)c(C)c(OC(=O)N(CC)CC)c2c1 (stereo not drawn) [compound 72] | A (protective value ≧80%) | B (protective value 50 to 79%) | – |
| CC(=O)Oc1c(C)c(C)nc2ccc(CC(C)C)cc12 [compound 93] | A (protective value ≧80%) | A (protective value ≧80%) | – |
| C=CCC(=O)Oc1c(C)c(C)nc2ccc(C(C)CC)cc12 (stereo not drawn) [compound 175] | A (protective value ≧80%) | – | – |
| CCC(C)c1ccc2nc(C)c(C)c(OC(=O)CC(C)C)c2c1 (stereo not drawn) [compound 176] | A (protective value ≧80%) | – | – |
| CC(=O)Oc1c(C)c(C)nc2ccc(Br)cc12 [compound 185] | A (protective value ≧80%) | B (protective value 50 to 79%) | – |
| CC(=O)Oc1c(C)c(C)nc2c(C)cc(Br)cc12 [compound 195] | A (protective value ≧80%) | A (protective value ≧80%) | – |
| CC(=O)Oc1c(C)c(C)nc2cc(C)c(Br)cc12 [compound 196] | A (protective value ≧80%) | – | – |
| CC(=O)Oc1c(C)c(C)nc2ccc(Br)c(C)c12 [compound 197] | A (protective value ≧80%) | A (protective value ≧80%) | – |
| CC(=O)Oc1c(C)c(C)nc2c(C)cc(F)cc12 [compound 198] | – | B (protective value 50 to 79%) | – |
| CC=C(C)c1ccc2nc(C)c(C)c(O)c2c1 [compound 199] | – | A (protective value ≧80%) | – |
| CC=C(C)c1ccc2nc(C)c(C)c(OC(C)=O)c2c1 [compound 200] | – | A (protective value ≧80%) | – |
